Molecular target: T1, Human HDAC6 (Homo sapiens, UniProt Q9UBN7)
T1 construct: Full length with N-terminal GST tag, MW=159 kDa; GST (N); purchased BioMol SE-508; host or cells: Sf9 cells, baculovirus
T1 sequence (Q9UBN7 1-1215): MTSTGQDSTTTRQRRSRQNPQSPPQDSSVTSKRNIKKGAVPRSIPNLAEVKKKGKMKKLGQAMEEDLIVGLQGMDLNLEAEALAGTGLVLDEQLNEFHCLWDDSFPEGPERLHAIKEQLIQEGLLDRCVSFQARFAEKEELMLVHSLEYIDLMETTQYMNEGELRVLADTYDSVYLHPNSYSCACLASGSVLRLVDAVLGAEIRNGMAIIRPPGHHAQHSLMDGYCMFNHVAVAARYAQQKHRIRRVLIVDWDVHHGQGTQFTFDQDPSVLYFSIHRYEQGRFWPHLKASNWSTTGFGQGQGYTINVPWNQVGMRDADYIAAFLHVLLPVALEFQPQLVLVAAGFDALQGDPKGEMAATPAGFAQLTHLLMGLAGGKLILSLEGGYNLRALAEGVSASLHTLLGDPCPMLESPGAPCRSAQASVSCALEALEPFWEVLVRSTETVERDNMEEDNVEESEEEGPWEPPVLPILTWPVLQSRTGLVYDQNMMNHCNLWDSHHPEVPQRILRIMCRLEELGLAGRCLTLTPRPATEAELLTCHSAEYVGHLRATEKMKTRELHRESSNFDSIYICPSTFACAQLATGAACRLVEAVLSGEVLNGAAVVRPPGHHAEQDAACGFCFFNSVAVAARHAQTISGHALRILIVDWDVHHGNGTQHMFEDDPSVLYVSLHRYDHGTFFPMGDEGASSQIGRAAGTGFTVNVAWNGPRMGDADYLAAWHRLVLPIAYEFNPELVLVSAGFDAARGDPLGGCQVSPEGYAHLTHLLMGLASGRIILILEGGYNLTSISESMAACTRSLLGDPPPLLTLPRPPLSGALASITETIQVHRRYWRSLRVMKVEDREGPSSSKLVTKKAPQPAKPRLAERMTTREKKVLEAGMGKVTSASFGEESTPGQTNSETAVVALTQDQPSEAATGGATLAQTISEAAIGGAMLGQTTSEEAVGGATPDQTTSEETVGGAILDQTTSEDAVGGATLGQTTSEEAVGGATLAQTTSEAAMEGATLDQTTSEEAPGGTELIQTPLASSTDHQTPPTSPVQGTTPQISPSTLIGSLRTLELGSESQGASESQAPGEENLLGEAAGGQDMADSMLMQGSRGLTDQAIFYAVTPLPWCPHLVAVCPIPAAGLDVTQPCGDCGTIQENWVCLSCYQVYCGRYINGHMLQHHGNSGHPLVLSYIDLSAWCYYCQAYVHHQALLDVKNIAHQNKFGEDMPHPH
Test: In vitro HDAC6 inhibition, fluorogenic peptide assay
Type: biochemical
Conditions: read-out: IC50 (nM) of enzyme activity HDAC6
Procedure: All HDAC assays were performed using acetylated AMC-labeled peptide substrate: • Substrate for isoforms HDAC1, 2, 3, 4, 5, 6, 7, 9, 10, 11 and HeLa nuclear extract assays: Acetylated fluorogenic peptide from p53 residues 379-382 (RHKKAc) (BioMol. Cat. # KI-104). • Substrate for HDAC8 assays: Acetylated fluorogenic peptide from p53 residues 379-382 (RHKAcKAc) (BioMol. Cat. # KI-178).
Enzymes: • HDAC1 assay: 75 nM Human HDAC1 (GenBank Accession No. NM_004964): Full length with C-terminal GST tag, MW=79.9 kDa, expressed by baculovirus expression system in Sf9 cells (BioMol. Cat. # SE-456). • HDAC2 assay: 5 nM Human HDAC2 (GenBank Accession No. Q92769): Full length with C-terminal His tag, MW=60 kDa, expressed by baculovirus expression system in Sf9 cells (BioMol. Cat. # SE-500). • HDAC3 assay: 2.3 nM Human HDAC3/NcoR2 (GenBank Accession No. NM_003883 for HDAC3, GenBank Accession No.NM_006312 for NcoR2): Complex of human HDAC3, full length with C-terminal His tag, MW=49.7 kDa, and human NCOR2, N-terminal GST tag, MW=39 kDa, co-expressed in baculovirus expression system (BioMol. Cat. # SE-507). • HDAC4 assay: 266 nM Human HDAC4 (GenBank Accession No. NM_006037): Amino acids 627-1085 with N-terminal GST tag, MW=75.2 kDa, expressed in baculovirus expression system (BioMol, Hamburg, Germany). • HDAC5 assay: 588 nM Human HDAC5 (GenBank Accession No. NM_001015053): Full length with Nterminal GST tag, MW=150 kDa, expressed by baculovirus expression system in Sf9 cells (BioMol, Hamburg, Germany). • HDAC6 assay: 13 nM Human HDAC6 (GenBank Accession No. BC069243): Full length with N-terminal GST tag, MW=159 kDa, expressed by baculovirus expression system in Sf9 cells (BioMol. Cat. # SE-508). • HDAC7 assay: 962 nM Human HDAC7 (GenBank Accession No. AY302468): Amino acids 518-end with N-terminal GST tag, MW=78 kDa, expressed in baculovirus expression system (BioMol, Hamburg, Germany). • HDAC8 assay: 119 nM Human HDAC8 (GenBank Accession No. NM018486): Full length, MW=42 kDa, expressed in an E. coli expression system (BioMol. Cat. # SE-145). • HDAC9 assay: 986 nM Human HDAC9 (GenBank Accession No. NM178423): Amino acids 604-1066 with C-terminal His tag, MW=50.7 kDa, expressed in baculovirus expression system (BioMol, Hamburg, Germany). • HDAC10 assay: 781 nM Human HDAC10 (GenBank Accession No. NM_032019): Amino acids 1-631 with Nterminal GST tag, MW=96 kDa, expressed by baculovirus expression system in Sf9 cells (BioMol. Cat. # SE-559). • HDAC11 assay: 781 nM Human HDAC11 (GenBank Accession No. NM_BC009676) with N-terminal GST tag, MW=66 kDa, expressed in baculovirus expression system (BioMol. Cat. # SE-560). • HeLaNuclear Extract assay: 25 ng/μl Nuclear Extract from HeLa Cells: Prepared by high salt extraction of HeLa nuclei (human cervical cancer cell line), this extract is a rich source of HDAC activity (BioMol. Cat. # KI-140).
The reactions were carried out in a 96-well microplate for fluorometry in a 50 μl reaction volume. After the deacetylation reaction, Fluor-de-Lys-Developer (BioMol Cat. # KI-105) was added to each well to digest the deacetylated substrate, thus producing the fluorescent signal. The reaction was allowed to develop for 45 minutes at 30° C. with 5% CO2; then the fluorescent signal was measured with an excitation wavelength at 360 nm and an emission wavelength at 460 nm in a microplate-reading fluorometer (GeminiXS; Molecular Devices, Sunnyvale, Calif.). […] All experiments were performed in triplicate. IC50 was calculated by fitting the experimental data to a dose-response curve. DMSO was used as negative control; Trichostatin A (Biomol Cat. # GR-309) was used as positive control inhibitor.

SMILES | IC50
O=C(CCCCCNC(=O)c1[nH]c(-c2ccccc2)cc1-c1ccc(O)cc1)NO [Example 1, N-(6-(hydroxyamino)-6-oxohexyl)-3-(4-hydroxyphenyl)-5-phenyl-1H-pyrrole-2-carboxamide] | 14 nM
COc1ccc(-c2cc(-c3ccccc3)c(C(=O)NCCCCCC(=O)NO)[nH]2)cc1 [Compound B, N-[6-(hydroxyamino)-6-oxohexyl]-5-(4-methoxyphenyl)-3-phenyl-1H-pyrrole-2-carboxamide, reference compound] | 32 nM
COc1ccc(-c2cc(-c3ccccc3)[nH]c2C(=O)NCCCCCC(=O)NO)cc1 [Compound A, N-[6-(hydroxyamino)-6-oxohexyl]-3-(4-methoxyphenyl)-5-phenyl-1H-pyrrole-2-carboxamide, reference compound] | 20 nM

Further lines, results first:

IC50 | SMILES
0.6 nM | O=C(CCCCCNC(=O)c1[nH]c(-c2ccc(O)cc2)cc1-c1ccoc1)NO [Example 5, 3-(3-furyl)-N-(5-(hydroxycarbamoyl)pentyl)-5-(4-hydroxy-phenyl)-1H-pyrrole-2-carboxamide]
7.6 nM | O=C(CCCCCNC(=O)c1[nH]c(-c2ccc(O)cc2)cc1-c1ccccc1)NO [Example 2, N-(6-(hydroxyamino)-6-oxohexyl)-5-(4-hydroxyphenyl)-3-phenyl-1H-pyrrole-2-carboxamide]
12 nM | O=C(CCCCCNC(=O)c1[nH]c(-c2ccsc2)cc1-c1ccc(O)cc1)NO [Example 3, N-(5-(hydroxycarbamoyl)pentyl)-3-(4-hydroxyphenyl)-5-(3-thienyl)-1H-pyrrole-2-carboxamide]
9.3 nM | O=C(CCCCCNC(=O)c1[nH]c(-c2ccoc2)cc1-c1ccc(O)cc1)NO [Example 4, 5-(3-furyl)-N-(5-(Hydroxycarbamoyl)pentyl)-3-(4-hydroxy-phenyl)-1H-pyrrole-2-carboxamide]
1.6 nM | O=C(CCCCCNC(=O)c1[nH]c(-c2ccc(O)cc2)cc1-c1ccsc1)NO [Example 6, N-(5-(hydroxycarbamoyl)pentyl)-5-(4-hydroxyphenyl)-3-(3-thienyl)-1H-pyrrole-2-carboxamide]

Reference: patent US20150038545A1, “HYDROXYPHENYL PYRROLE COMPOUNDS CONTAINING AN HYDROXAMIC ACID AS HDAC INHIBITORS AND MEDICINAL APPLICATIONS THEREOF” (UNIVERSIDAD DEL PAÍS VASCO, priority 2011, published 2015)
